# Like-named read-outs stand apart in the source and are kept apart here. Where a SMILES comes first, the peptide text is derived from it. Where no end group is shown, it is not given here.
# Legend:
# [1] = MTD studies and renal toxicity in rats (creatinine, BUN); settings: rats, subcutaneous 25 mg/kg
# [2] = rat, in vivo, sc, 25 mg/kg
# Procedure: (§1) Rats were anaesthetized in the supine position (Isoflurane 1.5--%) and allowed to breath spontaneously in 0.5 L/min 02. The left femoral artery was cannulated for blood sampling.
# (§2) Test agents were prepared at the stablish concentration in a total volume of vehicle. Pulmonary instillation was performed by intubation with a 14G catheter connected to a 1 cc syringe and the test agent will be delivered through the catheter. Subcutaneous (SQ or SC) injection was injected into the area of the left flank, no more than 2 ml of total volume per site.
# (§3) Each dose was evaluated in 3 rats for each administration strategy. […] For the first experiment, evaluating two different administration routes (SQ and PI), blood samples were collected at 8 different timepoints: Pre and at 7 additional times (1, 2.5, 5, 10, 15, 30, 60 min) post dose (250 ul/sample).
# (§4) HPLC quantification: Plasma was separated from blood and stored at −−−80° C. until used. […] Standard curves for HPLC were generated from plasma samples spiked with known quantities of test agent.
# PSD95PDZ2 = PSD95PDZ2 (Homo sapiens, UniProt P78352); assay: Competitive ELISA with biotinylated-NA-1; settings: for EC50 (compared between peptides): PSD-95 domain 2, FIG. 12
# PSD95PDZ2, sequence (P78352 160-246 limits assumed): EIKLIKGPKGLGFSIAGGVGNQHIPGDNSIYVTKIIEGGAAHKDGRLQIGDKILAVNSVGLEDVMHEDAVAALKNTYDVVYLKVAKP
# tPA = tPA (Homo sapiens, UniProt P00750)
# tPA, sequence (P00750 36-562): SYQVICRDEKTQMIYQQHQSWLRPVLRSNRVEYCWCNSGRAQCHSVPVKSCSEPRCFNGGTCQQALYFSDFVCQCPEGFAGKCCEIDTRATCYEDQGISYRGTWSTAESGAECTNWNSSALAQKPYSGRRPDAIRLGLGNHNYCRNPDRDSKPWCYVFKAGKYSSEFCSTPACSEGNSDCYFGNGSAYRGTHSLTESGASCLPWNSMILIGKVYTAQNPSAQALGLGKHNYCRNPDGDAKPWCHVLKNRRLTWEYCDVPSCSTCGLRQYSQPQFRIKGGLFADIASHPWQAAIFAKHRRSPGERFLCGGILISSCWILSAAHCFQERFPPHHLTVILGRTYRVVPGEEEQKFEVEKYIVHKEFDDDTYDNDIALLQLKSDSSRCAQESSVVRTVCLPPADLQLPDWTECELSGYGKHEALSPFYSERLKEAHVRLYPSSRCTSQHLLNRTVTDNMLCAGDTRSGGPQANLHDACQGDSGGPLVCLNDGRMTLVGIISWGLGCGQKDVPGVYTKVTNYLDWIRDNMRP
# histamine release = settings: rat, in vivo, iv, 7.6 mg/kg
# Procedure: Histamine levels were quantified by using commercially available histamine ELISA assay kit (Histamine ELISA-H1531-K01, Eagle Bioscience). The plates were coated with the plasma samples (50 ul/well) incubated for 60 minutes at room temperature on an orbital shaker with medium frequency. Then 100 ul of enzyme conjugate was added to the wells and incubated for 20 minutes at room temperature. […] The reaction was stopped with 100 ul H2SO4. Absorbance was determined on an ELISA plate reader at 450 nm.
# Blood samples were taken at pre-injection and at 0, 1, 2.5, 5, 10, 15, 30- and 60-minutes post dose and used for histamine levels quantification using commercially available kit.
# [3] = Plasmin sensitivity: peptides in PBS challenged with 10 ug/ml plasmin, HPLC; settings: isolated enzyme plasmin
# [4] = Plasma concentrations 15 minutes post subcutaneous dose (animals of the 3PVO model); assay type: in vivo, rat; settings: single subcutaneous administration, 2.5, 7.6, 25 mg/kg
# Procedure: Unlike transient models of stroke in rats where much lower doses are required for neuroprotection, neuroprotection in 3 pial vessel occlusion models of stroke seems to require plasma concentrations of nerinetide at or above 2 ug/mL (or molar equivalent). […] Although the plasma levels continue to increase through about 3 hours then decrease, it is important to achieve rapid accumulation in the blood and brain for emergency indications like stroke. […] For pharmacokinetic sample analysis, calibration standard samples at concentrations of 0, 2.5, 5, 10, 15, 20 and 40 ug/mL of nerinetide were prepared by spiking 1 μL of the appropriate stock to 100 μL of plasma. […] Data is presented as mean±SD.
# tMCAo = assay: Dose range of nerinetide in rat tMCAo model; assay type: in vivo, rats
# Procedure: Nerinetide and lodoxamide was administered to rats intravenously as a bolus injection, 60 minutes after tMCAo. […] Bars in A and represent mean±SD, with all individual data points plotted. Asterisks in A indicate P<0.01 when compared to the vehicle group (one-way ANOVA post hoc Tukey's correction for multiple comparisons test) N=12-14 animals/group. […] Significant differences are indicated with an asterisk when compared to the vehicle group (Kruskal-Wallis analysis of variance on ranks with a post-hoc Dunn's correction for multiple comparisons test, *P<0.01). Vehicle: PBS alone. […] Doses up to at least 25 mg/kg were also effective with the highest efficacy being at about 15 mg/kg. The observed wide therapeutic range was attributable to nerinetide, and not to the mast cell degranulation inhibitor lodoxamide, which was present in all solutions to avoid potential hypotension due to histamine release.
# [5] = human studies, 2.6 mg/kg dose; cited from earlier work
# [6] = test system: 3-pial vessel occlusion model of stroke
# [7] = Renal biomarkers or electrolyte imbalance after administration to rats (Table 7); assay type: in vivo; settings: rats, IV 7.6 mg/kg
# Procedure: NoNO42 was tested for effect on various renal biomarkers or electrolyte imbalance in comparison with nerinetide after administration to rats as shown in Table 7.
# plasmin [8] = biological target: T1, plasmin (Homo sapiens, UniProt P00747); assay: Plasmin sensitivity: peptides in PBS challenged with 10 ug/ml plasmin, HPLC
# T1 sequence (P00747 581-810 limits assumed, species assumed): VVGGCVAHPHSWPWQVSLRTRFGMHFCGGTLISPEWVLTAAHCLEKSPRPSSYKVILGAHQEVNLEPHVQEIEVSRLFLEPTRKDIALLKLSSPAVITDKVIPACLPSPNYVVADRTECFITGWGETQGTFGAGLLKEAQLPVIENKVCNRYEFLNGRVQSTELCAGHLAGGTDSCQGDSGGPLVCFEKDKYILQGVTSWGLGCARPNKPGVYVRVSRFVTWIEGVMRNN
# T1 sequence (P00747 97-580 partner limits assumed, species assumed): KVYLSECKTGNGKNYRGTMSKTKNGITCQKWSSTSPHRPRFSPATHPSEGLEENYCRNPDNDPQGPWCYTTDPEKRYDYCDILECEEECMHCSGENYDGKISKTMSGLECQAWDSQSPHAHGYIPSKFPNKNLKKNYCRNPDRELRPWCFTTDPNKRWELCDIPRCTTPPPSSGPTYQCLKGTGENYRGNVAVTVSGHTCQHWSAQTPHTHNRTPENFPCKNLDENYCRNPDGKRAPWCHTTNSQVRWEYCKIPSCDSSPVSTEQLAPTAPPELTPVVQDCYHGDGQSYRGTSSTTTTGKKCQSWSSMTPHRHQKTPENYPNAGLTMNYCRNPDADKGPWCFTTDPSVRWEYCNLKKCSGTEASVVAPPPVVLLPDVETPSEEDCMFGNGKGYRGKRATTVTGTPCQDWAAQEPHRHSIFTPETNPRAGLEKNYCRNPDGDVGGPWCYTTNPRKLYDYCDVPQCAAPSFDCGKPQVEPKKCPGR
# plasmin [9] = biological target: T1, plasmin; assay type: in vitro ADME; parameters: challenged with 10 ug/ml plasmin at 37 C
# [10] = Degradation in rat plasma in vitro, alone or with rt-PA or TNK
# Text: (§5) Samples were collected at 6 different time points.
# (§6) The experiment was repeated using TNK-tissue plasminogen activator in place of tPA.
# [11] = Pharmacokinetic analysis in rats (subcutaneous, pulmonary instillation, intravenous, intramuscular), HPLC
# Procedure: as §1, §2, §3, §4
# plasmin [12] = biological target: T1, plasmin; assay type: in vitro ADME; parameters: challenged with 10 ug/ml plasmin at 37 C; remark: listed apart in the source
# Text: Plasmin is a serum protease induced by thrombolytic agents, such as tPA. Plasmin cleavage sites can occur on the C-terminal side of basic amino acids residues in a peptide formed of L-amino acids. NA-1 was digested with plasmin and the products analyzed by mass spectrometry. […] However, cleavage at the other two sites may occur to a lesser extent.
# Weight gain of rats = settings: IV 7.6 mg/kg
# [13] = humans; cited from earlier work
# [14] = Degradation in human plasma in vitro, alone or with rt-PA or TNK
# Text: as §5, §6
# NMDAR2B:PSD-95 complexes = biological target: T2, NMDAR2B:PSD-95 complexes (Rattus norvegicus, UniProt P31016); assay: Dissociation of NMDAR2B:PSD-95 complexes after 3PVo, immunoprecipitation and Western blotting; assay type: in vivo, Sprague-Dawley rats; settings: 7.6 mg/kg 1 hr after stroke onset (3PVo), brains harvested 2 h after onset
# T2 construct: Cortical stroke areas were collected for analysis; from tissue; host or cells: rat brain cortex (stroke area) after in vivo dosing
# T2 sequence (P31016 whole entry, one chain of several): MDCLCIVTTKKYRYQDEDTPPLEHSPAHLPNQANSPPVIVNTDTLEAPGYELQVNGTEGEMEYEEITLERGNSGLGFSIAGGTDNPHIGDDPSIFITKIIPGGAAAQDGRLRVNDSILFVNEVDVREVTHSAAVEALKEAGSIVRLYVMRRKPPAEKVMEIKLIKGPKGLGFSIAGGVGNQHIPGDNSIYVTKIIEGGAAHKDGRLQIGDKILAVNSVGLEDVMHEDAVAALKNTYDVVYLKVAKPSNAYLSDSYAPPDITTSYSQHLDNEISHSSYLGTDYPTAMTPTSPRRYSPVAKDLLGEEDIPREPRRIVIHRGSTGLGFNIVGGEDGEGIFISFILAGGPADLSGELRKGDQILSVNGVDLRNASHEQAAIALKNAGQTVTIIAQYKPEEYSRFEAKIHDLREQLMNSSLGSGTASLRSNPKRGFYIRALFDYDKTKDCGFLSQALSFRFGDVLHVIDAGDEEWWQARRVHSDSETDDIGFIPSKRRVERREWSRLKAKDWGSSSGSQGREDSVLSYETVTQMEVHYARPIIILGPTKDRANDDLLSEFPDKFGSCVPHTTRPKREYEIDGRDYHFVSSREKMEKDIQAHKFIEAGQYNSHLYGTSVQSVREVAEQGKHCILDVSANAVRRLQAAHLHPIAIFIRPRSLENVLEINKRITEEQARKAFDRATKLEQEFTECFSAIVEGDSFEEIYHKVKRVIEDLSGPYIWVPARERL
# Procedure: Sprague-Dawley rats were subject to three pial vessel model (3PVo). […] Brains were harvested 2 h after stroke onsets. Cortical stroke areas were collected for analysis. Immunoprecipitations were performed with anti-PSD-95 or anti-NMDAR2B. The amount of PSD-95 and NMDAR2B in samples was analyzed by Western blotting. Reduction in PSD-95-NMDAR2B complex formation was assessed by fold decrease of placebo versus treatment.
# [15] = IV bolus with lodoxamide 60 minutes after tMCAo
compound,measurement,setting,value
CC[C@H](C)[C@H](NC(=O)[C@H](CO)NC(=O)[C@H](CO)NC(=O)[C@H](CC(C)C)NC(=O)[C@H](CCCCN)NC(=O)[C@@H](CCCNC(=N)N)NC(=O)[C@@H](CCCNC(=N)N)NC(=O)[C@@H](CCCNC(=N)N)NC(=O)[C@@H](CCC(N)=O)NC(=O)[C@@H](CCCNC(=N)N)NC(=O)[C@@H](CCCNC(=N)N)NC(=O)[C@@H](CCCCN)NC(=O)[C@@H](CCCCN)NC(=O)[C@@H](CCCNC(=N)N)NC(=O)CNC(=O)[C@H](N)Cc1ccc(O)cc1)C(=O)N[C@@H](CCC(=O)O)C(=O)N[C@@H](CO)C(=O)N[C@@H](CC(=O)O)C(=O)N[C@H](C(=O)O)C(C)C [D-Tat-L-2B9C] (HELM PEPTIDE1{[dY].G.[dR].[dK].[dK].[dR].[dR].[dQ].[dR].[dR].[dR].K.L.S.S.I.E.S.D.V}$$$$V2.0; N-terminus and C-terminus assumed),creatinine versus the same dose level of NA-3,[1],Much less creatinine is observed
same,AUC compared with subcutaneous NA-1,[2],increased Cmax and AUC relative to subcutaneous NA-1 but not to the same extent
same,Cmax compared with subcutaneous NA-1,[2],increased Cmax and AUC relative to subcutaneous NA-1 but not to the same extent
same,IC50,PSD95PDZ2,< 5 µM
same,IC50's relative to each other,"PSD95PDZ2; FIG. 11, within the margin of error",within a factor of two of each other
same,EC50 (compared between peptides),PSD95PDZ2,about the same within experimental error
same,"degradation, control treatment with tPA",tPA,no degradation
same,histamine release,histamine release,did result in significant histamine release
CC[C@H](C)[C@H](NC(=O)[C@H](CO)NC(=O)[C@H](CO)NC(=O)[C@H](CC(C)C)NC(=O)[C@H](CCCCN)NC(=O)[C@H](CCCNC(=N)N)NC(=O)[C@@H](CCCNC(=N)N)NC(=O)[C@H](CCCNC(=N)N)NC(=O)[C@H](CCC(N)=O)NC(=O)[C@@H](CCCNC(=N)N)NC(=O)[C@H](CCCNC(=N)N)NC(=O)[C@H](CCCCN)NC(=O)[C@@H](CCCCN)NC(=O)[C@H](CCCNC(=N)N)NC(=O)CNC(=O)[C@@H](N)Cc1ccc(O)cc1)C(=O)N[C@@H](CCC(=O)O)C(=O)N[C@@H](CO)C(=O)N[C@@H](CC(=O)O)C(=O)N[C@H](C(=O)O)C(C)C [NA-4.4.3] (HELM PEPTIDE1{Y.G.R.[dK].K.R.[dR].Q.R.[dR].R.K.L.S.S.I.E.S.D.V}$$$$V2.0; N-terminus and C-terminus assumed),"remaining at 0.5 h, 65 ug/ml",[3],> 85%
"YGRKKRRQRRRKLSSIESDV [NA-1, reference compound]",relation between treatment dose and Cmax,[4],dose proportionality between the treatment dose and the Cmax
same,dose of highest efficacy,tMCAo; [15],about 15 mg/kg
same,doses up to which nerinetide was effective,tMCAo; [15],at least 25 mg/kg
same,lowest dose producing significant reduction in infarct volume and improvement in neurological function,"tMCAo; IV bolus with lodoxamide 60 minutes after tMCAo, 24 hours",0.25 mg/kg
same,effective dosage range (reducing infarction size and neurologic deficit),"tMCAo; rat tMCAo model, at least this range",0.25-25 mg/kg
same,effective plasma concentration,[5],~10 µg/mL
same,infarct volume compared to placebo,[6]; 7.6 mg/kg subcutaneous bolus 60 minutes after onset of stroke,failed to achieved infarct volume reduction
same,infarct volume compared to placebo,[6]; 25 mg/kg subcutaneous bolus 60 minutes after onset of stroke,significant reduction in infarct volume
same,plasma concentration required for neuroprotection,[6]; 3 pial vessel occlusion models of stroke,≥ 2 µg/mL
same,Anion Gap,[7]; Day 4,7.3 mmol/L
same,BUN,[7]; Day 4,13.7 mg/dL
same,Cl,[7]; Day 4,100.7 mmol/L
same,Creatinine,[7]; Day 4,0.2 mg/dL
same,Glucose,[7]; Day 4,178.0 mg/dL
same,Hct,[7]; Day 4,39% ± % PCV
same,Hgb,[7]; Day 4,13.4 g/dL
same,K+,[7]; Day 4,4.8 mmol/L
same,Na+,[7]; Day 4,137.3 mmol/L
same,iCa,[7]; Day 4,1.43 mmol/L
same,tCO2,[7]; Day 4,35.0 mmol/L
same,Anion Gap,[7]; Day 14,9.0 mmol/L
same,BUN,[7]; Day 14,16.7 mg/dL
same,Cl,[7]; Day 14,98.3 mmol/L
same,Creatinine,[7]; Day 14,0.2 mg/dL
same,Glucose,[7]; Day 14,253.3 mg/dL
same,Hct,[7]; Day 14,38% ± % PCV
same,Hgb,[7]; Day 14,13.0 g/dL
same,K+,[7]; Day 14,4.4 mmol/L
same,Na+,[7]; Day 14,136.7 mmol/L
same,iCa,[7]; Day 14,1.45 mmol/L
same,tCO2,[7]; Day 14,34.3 mmol/L
same,Anion Gap,[7]; Pre,7.3 mmol/L
same,BUN,[7]; Pre,15.0 mg/dL
same,Cl,[7]; Pre,98.0 mmol/L
same,Creatinine,[7]; Pre,0.2 mg/dL
same,Glucose,[7]; Pre,251.7 mg/dL
same,Hct,[7]; Pre,38% ± % PCV
same,Hgb,[7]; Pre,13.0 g/dL
same,K+,[7]; Pre,4.8 mmol/L
same,Na+,[7]; Pre,135.7 mmol/L
same,iCa,[7]; Pre,1.46 mmol/L
same,tCO2,[7]; Pre,35.7 mmol/L
same,time to degradation,plasmin [8]; 10 ug/mL plasmin (FIG. 29),≤ 5 min
same,degradation by plasmin,"plasmin [8]; about 65 ug/ml peptide in PBS, 10 ug/ml plasmin, 37 C, HPLC",completely degraded in about five minutes
same,EC50 (compared between peptides),PSD95PDZ2,about the same within experimental error
same,degradation on treatment with plasmin,plasmin [9],rapidly degraded
same,degradation with coadministration of TNK,[10]; rat plasma (FIG. 8),rapid degradation
same,NA-1 content decay with tPA versus NA-1 alone,"[10]; rat plasma in vitro, NA-1 65 ug/mL, rt-PA 22.5-135 ug/mL",decayed much more rapidly when tPA was co-administered
same,time to decay to zero,"[10]; rat plasma in vitro, treated with tPA",≤ 15 min
same,AUC versus intravenous NA-1,[11]; intramuscular,somewhat higher
same,CMax versus intravenous NA-1,[11]; intramuscular,lower
same,half-life versus intravenous NA-1,[11]; intramuscular,higher
same,AUC versus the same dose of intravenous NA-1,[11]; subcutaneous,somewhat lower
same,CMax versus the same dose of intravenous NA-1,[11]; subcutaneous,much lower
same,half-life versus intravenous NA-1,[11]; subcutaneous,longer
same,"degradation, control treatment with tPA",tPA,no degradation
same,direct cleavage by tPA or TNK,tPA,Neither tPA nor TNK directly cleaves NA-1
same,plasmin cleavage sites,plasmin [12],cleavage at seven of nine potential sites
same,Weight,Weight gain of rats; Day 4,368.0 grams
same,Weight,Weight gain of rats; Day 14,420.0 grams
same,Weight,Weight gain of rats; Pre,360.3 grams
same,doses at which drops in blood pressure have been observed,[13],above 3.75 mg/kg
same,degradation with coadministration of TNK,[14]; human plasma (FIG. 7),rapid degradation
same,NA-1 content decay with tPA versus NA-1 alone,"[14]; human plasma in vitro, NA-1 65 ug/mL, rt-PA 22.5-135 ug/mL",decayed much more rapidly when tPA was co-administered
same,dissociation of preformed NMDAR2B:PSD-95 complexes,NMDAR2B:PSD-95 complexes,able to dissociate preformed NMDAR2B:PSD-95 complexes

# — patent US20240301003A1 (NoNO Inc., priority 2021, published 2024)
